Experimental data published in patent publication US6316414A, “Somatostatin analogs for the treatment of cancer” (Dabur Research Foundation, priority 2000, dated 2001).

Test system: human colon adenocarcinoma (PTC) xenografts
Experiment: In vivo antitumor activity on PTC xenografts in nude mice
Set-up: species or system Balb/c athymic mice
Details: for percentage inhibition of tumor growth as compared to controls: 8.5 μg/100 μl intravenously twice a day for 10 days
Method: The antitumor activity of SEQ ID NO:2 and SEQ ID NO:3 was studied in human colon adenocarcinoma (PTC) xenografts in nude mice. PTC tumor xenografts were grown in Balb/c athymic mice by subcutaneous inoculation of a single cell suspension of PTC cells (15×10^6 cells/100 μl). The tumor bearing animals were divided into 3 groups of three animals each including one group comprising untreated control animals. Treatment with novel somatostatin analogs was initiated when the average tumor volumes, as measured using a vernier caliper, were between 400-800 mm^3. Solutions of SEQ ID NO:2 and SEQ ID NO:3 were prepared at a concentration of 85 μg/ml and intravenously administered to the assigned group of tumor bearing animals at a dose of 8.5 μg/100 μl twice a day so that the total dose of […] was administered to each animal. The treatment was continued for a period of 10 days.
The antitumor activity of the compounds was monitored by measuring tumor volumes every fourth day using the formula W*W*L*[…] (W=smaller diameter, L=larger diameter). The percentage inhibition of tumor growth was calculated using the formula (1-tumor volume-treated/tumor volume control)* 100.

[1] = day 0, average of three animals
[2] = day 9, average of three animals
[3] = day 13, average of three animals
[4] = day 18, average of three animals
[5] = day 21, average of three animals

Substance: D-Phe-Cys-Tyr-D-Trp-Orn-Deg-Pen-Thr-NH2 [SEQ ID NO: 2]
- tumor volume, individual animal (animal IV, day 0): 0 mm^3
- tumor volume, individual animal (animal IV, day 9): 480 mm^3
- tumor volume, individual animal (animal IV, day 13): 1254 mm^3
- tumor volume, individual animal (animal IV, day 18): 1965 mm^3
- tumor volume, individual animal (animal IV, day 21): 491 mm^3
- tumor volume, individual animal (animal V, day 0): 0 mm^3
- tumor volume, individual animal (animal V, day 9): 678 mm^3
- tumor volume, individual animal (animal V, day 13): 2196 mm^3
- tumor volume, individual animal (animal V, day 18): 5240 mm^3
- tumor volume, individual animal (animal V, day 21): 4839 mm^3
- tumor volume, individual animal (animal VI, day 0): 0 mm^3
- tumor volume, individual animal (animal VI, day 9): 806 mm^3
- tumor volume, individual animal (animal VI, day 13): 2333 mm^3
- tumor volume, individual animal (animal VI, day 18): 4453 mm^3
- tumor volume, individual animal (animal VI, day 21): 6250 mm^3
- tumor volume, Avg [1]: 0 mm^3
- tumor volume, Avg [2]: 654 mm^3
- tumor volume, Avg [3]: 1927 mm^3
- tumor volume, Avg [4]: 3886 mm^3
- tumor volume, Avg [5]: 3860 mm^3
- percentage inhibition of tumor growth as compared to controls (day 21): 57.1%

Substance: D-Phe-Cys-Tyr-D-Trp-Orn-Ac5c-Pen-Thr-NH2 [SEQ ID NO: 3]
- tumor volume, individual animal (animal I, day 0): 0 mm^3
- tumor volume, individual animal (animal I, day 9): 560 mm^3
- tumor volume, individual animal (animal I, day 13): 1946 mm^3
- tumor volume, individual animal (animal I, day 18): 3177 mm^3
- tumor volume, individual animal (animal I, day 21): 0 mm^3
- tumor volume, individual animal (animal II, day 0): 0 mm^3
- tumor volume, individual animal (animal II, day 9): 774 mm^3
- tumor volume, individual animal (animal II, day 13): 1800 mm^3
- tumor volume, individual animal (animal II, day 18): 3610 mm^3
- tumor volume, individual animal (animal II, day 21): 4939 mm^3
- tumor volume, individual animal (animal III, day 0): 0 mm^3
- tumor volume, individual animal (animal III, day 9): 324 mm^3
- tumor volume, individual animal (animal III, day 13): 1530 mm^3
- tumor volume, individual animal (animal III, day 18): 4234 mm^3
- tumor volume, individual animal (animal III, day 21): 7301 mm^3
- tumor volume, Avg [1]: 0 mm^3
- tumor volume, Avg [2]: 552 mm^3
- tumor volume, Avg [3]: 1758 mm^3
- tumor volume, Avg [4]: 3674 mm^3
- tumor volume, Avg [5]: 4080 mm^3
- percentage inhibition of tumor growth as compared to controls (day 21): 54.7%
